# Columns and labels:
# Type in all cases: cell-based
# murine TLR9 = target: T1, murine TLR9 (Mus musculus, UniProt Q9EQU3, L378S/Q579H/T325N/T573A/T867A); test: NF-κB-luciferase activation in 293 cells transfected with murine TLR9 (293-mTLR9-luc); conditions: for EC50: ODN concentration of half-maximal activation, 293-mTLR9-luc cells, NF-κB-driven luciferase readout, 12 hours, read-out: 293-mTLR9 Kac
# T1 construct: additional primers were designed for amplification of the complete mouse TLR9 cDNA; expressed in transfected cells
# T1 sequence (Q9EQU3 26-1032 T325N/L378S/T573A/Q579H/T867A): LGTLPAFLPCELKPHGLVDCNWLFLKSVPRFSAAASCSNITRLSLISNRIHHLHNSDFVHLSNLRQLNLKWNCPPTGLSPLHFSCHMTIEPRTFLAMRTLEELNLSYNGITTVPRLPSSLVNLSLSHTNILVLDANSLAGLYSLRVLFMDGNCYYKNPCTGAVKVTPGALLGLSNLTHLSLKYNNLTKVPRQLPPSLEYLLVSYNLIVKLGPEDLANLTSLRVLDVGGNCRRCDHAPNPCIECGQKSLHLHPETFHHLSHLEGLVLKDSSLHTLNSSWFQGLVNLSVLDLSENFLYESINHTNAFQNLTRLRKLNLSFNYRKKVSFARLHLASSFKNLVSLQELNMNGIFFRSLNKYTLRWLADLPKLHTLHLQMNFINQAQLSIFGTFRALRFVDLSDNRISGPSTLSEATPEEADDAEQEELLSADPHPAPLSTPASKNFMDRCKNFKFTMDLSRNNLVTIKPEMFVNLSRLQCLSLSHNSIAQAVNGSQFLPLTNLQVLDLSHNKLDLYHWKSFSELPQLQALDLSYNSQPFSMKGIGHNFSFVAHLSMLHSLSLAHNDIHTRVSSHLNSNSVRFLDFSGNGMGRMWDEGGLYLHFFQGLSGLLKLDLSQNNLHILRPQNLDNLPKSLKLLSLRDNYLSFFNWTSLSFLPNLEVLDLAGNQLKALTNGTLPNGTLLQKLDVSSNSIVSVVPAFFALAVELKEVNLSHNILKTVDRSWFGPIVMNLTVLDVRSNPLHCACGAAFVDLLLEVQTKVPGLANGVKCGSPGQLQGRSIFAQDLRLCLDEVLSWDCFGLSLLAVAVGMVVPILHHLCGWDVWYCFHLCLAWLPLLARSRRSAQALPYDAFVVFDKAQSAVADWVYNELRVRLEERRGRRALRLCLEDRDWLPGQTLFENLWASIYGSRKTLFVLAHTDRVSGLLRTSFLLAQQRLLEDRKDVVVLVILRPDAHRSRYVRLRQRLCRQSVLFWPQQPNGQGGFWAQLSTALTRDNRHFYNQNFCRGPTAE
# Source text: Human fibroblast 293 cells were transiently transfected with mTLR9 and the NF-κB-luc construct (FIG. 2). Similar data was obtained for IL-8 production (not shown). Thus expression of TLR9 (human or mouse) in 293 cells results in a gain of function for CpG-DNA stimulation similar to hTLR4 reconstitution of LPS responses.
# To generate stable clones expressing human TLR9, murine TLR9, or either TLR9 with the NF-κB-luc reporter plasmid, 293 cells were transfected in 10 cm plates (2×10^6 cells/plate) with 16 μg of DNA and selected with 0.7 mg/ml G418 (PAA Laboratories GmbH, Cölbe, Germany). The clones were also screened for IL-8 production or NF-κB-luciferase activity after stimulation with ODN. Four different types of clones were generated. • 293-hTLR9-luc: expressing human TLR9 and 6-fold NF-κB-luciferase reporter • 293-mTLR9-luc: expressing murine TLR9 and 6-fold NF-κB-luciferase reporter • 293-hTLR9: expressing human TLR9 • 293-mTLR9: expressing murine TLR9
# Similar results were obtained utilizing IL-8 production with the stable clone 293-hTLR9. 293-mTLR9-luc were also stimulated with CpG-ODN (1668, 2 μM; […], SEQ ID NO:84), GpC-ODN (1668-GC, 2 μM; […], SEQ ID NO:85), Me-CpG-ODN (1668 methylated, 2 μM; TCCATGAZGTTCCTGATGCT, Z=5-methylcytidine, SEQ ID NO:207), LPS (100 ng/ml) or media, as measured by monitoring NF-κB activation (FIG. 5). Similar results were obtained utilizing IL-8 production with the stable clone 293-mTLR9. Results are representative of at least two independent experiments. […] These cells can be used for screening of optimal ligands for innate immune responses driven by TLR9 in multiple species.
# Because stable TLR9 transfectants mirrored primary cell responsiveness to CpG-DNA (FIGS. 4 and 5), it was hypothesized that stable transfectants could potentially discern species-specific CpG-motifs through TLR9 receptors. Therefore 293-hTLR9-luc (expressing human TLR9 and 6-fold NF-κB-luc reporter), 293-mTLR9-luc (expressing murine TLR9 and 6-fold NF-κB-luc reporter), 293-hTLR9 (expressing human TLR9) and 293-mTLR9 (expressing murine TLR9) clones were tested for CpG-DNA motif responsiveness. […] Depicted are both NF-κB-driven luciferase and IL-8 production as readout. […] After lysis of the cells luciferase can be detected photometrically based on an enzymatic reaction by luciferase which creates photons. IL-8 production was monitored using enzyme-linked immunosorbent assay (ELISA). […] Results shown in FIG. 11 are representative of three independent experiments. Strikingly, CpG-motif sequence specificity was conferred in a species-specific manner by TLR9. Additionally, the half-maximal concentration for either 2006 or 1668 appears nearly the same as those determined on primary cells (compare FIG. 10 and FIG. 11).
# (§1) Although 2006 and 1668 are discussed in terms of CpG-motif differences, they are very different in several aspects (see Table 5 for comparison). The lengths are different, 24 versus 20 nucleotides, and 2006 has four CG dinucleotides compared to one in 1668. Additional differences are the CG position relative to the 5′ and 3′ ends and also 5′ sequence differences. In order to determine if motif specificity is a quality of the motif and not the global sequence environment, for this experiment several sequences were produced holding these variables constant. As a starting point, the 1668 sequence was modified by converting the central C to T and the distal TG to CG, thereby creating a second CG in the resulting sequence 5000 (SEQ ID NO:130, Table 5). Then point nucleotide changes were made, progressing toward a 2006-like sequence, 5007 (SEQ ID NO:98). The ODN 5002 (SEQ ID NO:132) is most like 1668 with the exception that C's at positions 12 and 19 have been converted to T's. […]
# human TLR9 [1] = target: T2, human TLR9 (Homo sapiens, UniProt Q9NR96, H530R/Q688R); test: NF-κB-luciferase activation in 293 cells transfected with human TLR9 (293-hTLR9-luc); conditions: 12 hours
# T2 construct: expressed in transfected cells
# T2 sequence (Q9NR96 26-1032 H530R/Q688R): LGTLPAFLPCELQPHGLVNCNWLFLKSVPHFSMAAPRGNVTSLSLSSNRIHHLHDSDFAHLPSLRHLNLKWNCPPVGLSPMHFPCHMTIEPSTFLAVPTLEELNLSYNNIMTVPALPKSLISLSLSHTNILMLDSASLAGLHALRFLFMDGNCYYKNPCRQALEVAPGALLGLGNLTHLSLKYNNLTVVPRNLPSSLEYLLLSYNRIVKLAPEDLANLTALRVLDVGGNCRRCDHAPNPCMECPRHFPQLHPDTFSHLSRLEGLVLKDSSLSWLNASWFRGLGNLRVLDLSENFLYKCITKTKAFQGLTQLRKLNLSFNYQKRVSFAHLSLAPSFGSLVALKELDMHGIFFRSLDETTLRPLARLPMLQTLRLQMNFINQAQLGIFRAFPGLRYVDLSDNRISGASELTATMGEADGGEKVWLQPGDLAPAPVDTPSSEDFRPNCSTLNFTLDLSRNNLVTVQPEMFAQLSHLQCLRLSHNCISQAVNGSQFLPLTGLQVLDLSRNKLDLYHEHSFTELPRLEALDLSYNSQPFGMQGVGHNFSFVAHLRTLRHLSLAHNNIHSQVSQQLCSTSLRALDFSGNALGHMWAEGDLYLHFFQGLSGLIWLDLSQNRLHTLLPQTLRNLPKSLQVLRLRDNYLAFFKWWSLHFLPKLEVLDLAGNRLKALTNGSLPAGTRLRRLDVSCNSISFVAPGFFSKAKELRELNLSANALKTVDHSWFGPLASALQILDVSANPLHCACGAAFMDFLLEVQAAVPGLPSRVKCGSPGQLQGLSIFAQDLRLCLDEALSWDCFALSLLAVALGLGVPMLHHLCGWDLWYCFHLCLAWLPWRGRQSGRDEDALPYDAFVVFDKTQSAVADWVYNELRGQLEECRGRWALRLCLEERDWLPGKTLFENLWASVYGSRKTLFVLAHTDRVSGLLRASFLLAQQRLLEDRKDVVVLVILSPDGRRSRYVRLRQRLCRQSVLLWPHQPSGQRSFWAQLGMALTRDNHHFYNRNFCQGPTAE
# human TLR9 [2] = target: T2, human TLR9; test: as above; conditions: ODN concentration of half-maximal activation; 293-hTLR9-luc cells, NF-κB-driven luciferase readout, 12 hours; read-out: 293-hTLR9 Kac
# Source text: Since NF-κB activation is central to the IL-1/TLR signal transduction pathway (Medzhitov R et al., Mol Cell 2:253-258 (1998); Muzio M et al., J Exp Med 187:2097-2101 (1998)), cells were transfected with hTLR9 or co-transfected with hTLR9 and a NF-κB-driven luciferase reporter construct. Human fibroblast 293 cells were transiently transfected with (FIG. 1A) hTLR9 and a six-times NF-κB-luciferase reporter plasmid (NF-κB-luc, kindly provided by Patrick Baeuerle, Munich, Germany) or (FIG. 1B) with hTLR9 alone. After stimulus with CpG-ODN (2006, 2 μM, […], SEQ ID NO:112), GpC-ODN (2006-GC, 2 μM, […], SEQ ID NO:118), LPS (100 ng/ml) or media, NF-κB activation by luciferase readout (8 h, FIG. 1A) or IL-8 production by ELISA (48 h, FIG. 1B) were monitored. Results are representative of three independent experiments.
# To generate stable clones expressing human TLR9, murine TLR9, or either TLR9 with the NF-κB-luc reporter plasmid, 293 cells were transfected in 10 cm plates (2×10^6 cells/plate) with 16 μg of DNA and selected with 0.7 mg/ml G418 (PAA Laboratories GmbH, Cölbe, Germany). The clones were also screened for IL-8 production or NF-κB-luciferase activity after stimulation with ODN. Four different types of clones were generated. • 293-hTLR9-luc: expressing human TLR9 and 6-fold NF-κB-luciferase reporter • 293-mTLR9-luc: expressing murine TLR9 and 6-fold NF-κB-luciferase reporter • 293-hTLR9: expressing human TLR9 • 293-mTLR9: expressing murine TLR9 […]
# Because stable TLR9 transfectants mirrored primary cell responsiveness to CpG-DNA (FIGS. 4 and 5), it was hypothesized that stable transfectants could potentially discern species-specific CpG-motifs through TLR9 receptors. Therefore 293-hTLR9-luc (expressing human TLR9 and 6-fold NF-κB-luc reporter), 293-mTLR9-luc (expressing murine TLR9 and 6-fold NF-κB-luc reporter), 293-hTLR9 (expressing human TLR9) and 293-mTLR9 (expressing murine TLR9) clones were tested for CpG-DNA motif responsiveness. […] Depicted are both NF-κB-driven luciferase and IL-8 production as readout. […] After lysis of the cells luciferase can be detected photometrically based on an enzymatic reaction by luciferase which creates photons. IL-8 production was monitored using enzyme-linked immunosorbent assay (ELISA). FIG. 11 depicts clones stimulated with ODN 2006 (filled circle), ODN 2006-GC (open circle), ODN 1668 (filled triangle) or ODN 1668-GC (open triangle) at indicated concentrations and NF-κB activation or IL-8 production were measured after 10 and 48 hours, respectively. Results shown in FIG. 11 are representative of three independent experiments. Strikingly, CpG-motif sequence specificity was conferred in a species-specific manner by TLR9. Additionally, the half-maximal concentration for either 2006 or 1668 appears nearly the same as those determined on primary cells (compare FIG. 10 and FIG. 11).
# as §1
compound,measurement,setting,value
"TCCATGACGTCCTTGATGTT (listed as DNA, chemistry not fully specified) [ODN 5009]",293-mTLR9 responsiveness,murine TLR9; ACGTT versus ACGTC (5002 versus 5009),completely destroyed 293-mTLR9 responsiveness
same,EC50,murine TLR9,> 10 µM
"TCCATGACGTCATTGATGTT (listed as DNA, chemistry not fully specified) [ODN 5010]",EC50,murine TLR9,> 10 µM
CO/C1=C\C(C)=C\[C@@H](C)[C@@H](O)[C@@H](C)C/C(C)=C/C=C/[C@H](OC)[C@@H]([C@@H](C)[C@@H](O)[C@H](C)[C@@]2(O)C[C@@H](O)[C@H](C)[C@@H](C(C)C)O2)OC1=O [Bafilomycin A],CpG-ODN induction of NF-κB,"human TLR9 [1]; 293-hTLR9-luc cells preincubated 30 min with 10 nM, CpG-ODN 2006 0.5 μM",fully blocks
same,IL-1 and TNF induction of NF-κB,"human TLR9 [1]; 293-hTLR9-luc cells preincubated 30 min with 10 nM, IL-1 10 ng/ml or TNF-α 10 ng/ml",unaffected
"5′-HHHHHHHHHHHHHHWGGGGG-3′ (chemistry not given here) [blocking ODN, H=A, T, C; W=A, T]",blockade of CpG-ODN-induced NF-κB activation,"human TLR9 [1]; 293-hTLR9-luc cells, CpG-ODN 0.5 μM, increasing concentrations of blocking ODN",sensitive to non-CpG-ODN blockade
same,TNF-driven NF-κB signal,"human TLR9 [1]; 293-hTLR9-luc cells, TNF-α 10 ng/ml, increasing concentrations of blocking ODN",not diminished
"TCCATGACGTTTTTGATGTT (listed as DNA, chemistry not fully specified) [ODN 5003]",EC50,human TLR9 [2],10 µM
"TCCATGACGTTCTTGATGTT (listed as DNA, chemistry not fully specified) [ODN 5002]",EC50,human TLR9 [2],7 µM
"TCCATGACGTTATTGATGTT (listed as DNA, chemistry not fully specified) [ODN 5008]",EC50,murine TLR9,0.04 µM

# Reference: US7820379B2, “Process for high throughput screening of CpG-based immuno-agonist/antagonist” (Coley Pharmaceutical GmbH, priority 2000, dated 2010)
